Numbers after ± are expanded uncertainties.
Details: Liquid

CCCCC(=O)OCC [ethyl pentanoate]
mass density (338.15 K, 100 kPa): 828.4 ± 0.9 kg/m3
mass density (338.15 K, 1000 kPa): 829.5 ± 1 kg/m3
mass density (338.15 K, 2000 kPa): 830.7 ± 1 kg/m3
mass density (338.15 K, 2780 kPa): 831.5 ± 1.1 kg/m3
mass density (338.15 K, 3000 kPa): 831.8 ± 1.1 kg/m3
mass density (338.15 K, 5000 kPa): 834 ± 1.2 kg/m3
mass density (338.15 K, 10000 kPa): 839.4 ± 1.4 kg/m3
mass density (338.15 K, 15000 kPa): 844.5 ± 1.6 kg/m3
mass density (338.15 K, 20000 kPa): 849.3 ± 1.8 kg/m3
mass density (338.15 K, 25000 kPa): 853.9 ± 2 kg/m3
mass density (338.15 K, 30000 kPa): 858.2 ± 2.1 kg/m3
mass density (338.15 K, 35000 kPa): 862.4 ± 2.3 kg/m3
mass density (343.15 K, 100 kPa): 823 ± 1 kg/m3
mass density (343.15 K, 1000 kPa): 824.1 ± 1 kg/m3
mass density (343.15 K, 2000 kPa): 825.3 ± 1 kg/m3
mass density (343.15 K, 2780 kPa): 826.2 ± 1.1 kg/m3
mass density (343.15 K, 3000 kPa): 826.5 ± 1.1 kg/m3
mass density (343.15 K, 5000 kPa): 828.8 ± 1.2 kg/m3
mass density (343.15 K, 10000 kPa): 834.4 ± 1.4 kg/m3
mass density (343.15 K, 15000 kPa): 839.6 ± 1.6 kg/m3
mass density (343.15 K, 20000 kPa): 844.5 ± 1.8 kg/m3
mass density (343.15 K, 25000 kPa): 849.2 ± 2 kg/m3
mass density (343.15 K, 30000 kPa): 853.7 ± 2.2 kg/m3
mass density (343.15 K, 35000 kPa): 858 ± 2.3 kg/m3
mass density (348.15 K, 100 kPa): 817.7 ± 1 kg/m3
mass density (348.15 K, 1000 kPa): 818.7 ± 1 kg/m3
mass density (348.15 K, 2000 kPa): 820 ± 1.1 kg/m3
mass density (348.15 K, 2780 kPa): 821 ± 1.1 kg/m3
mass density (348.15 K, 3000 kPa): 821.3 ± 1.1 kg/m3
mass density (348.15 K, 5000 kPa): 823.7 ± 1.2 kg/m3
mass density (348.15 K, 10000 kPa): 829.4 ± 1.4 kg/m3
mass density (348.15 K, 15000 kPa): 834.8 ± 1.7 kg/m3
mass density (348.15 K, 20000 kPa): 839.9 ± 1.9 kg/m3
mass density (348.15 K, 25000 kPa): 844.7 ± 2.1 kg/m3
mass density (348.15 K, 30000 kPa): 849.3 ± 2.2 kg/m3
mass density (348.15 K, 35000 kPa): 853.6 ± 2.4 kg/m3
mass density (353.15 K, 100 kPa): 812.2 ± 1 kg/m3
mass density (353.15 K, 1000 kPa): 813.3 ± 1 kg/m3
mass density (353.15 K, 2000 kPa): 814.6 ± 1.1 kg/m3
mass density (353.15 K, 2780 kPa): 815.6 ± 1.1 kg/m3
mass density (353.15 K, 3000 kPa): 815.9 ± 1.1 kg/m3
mass density (353.15 K, 5000 kPa): 818.4 ± 1.2 kg/m3
mass density (353.15 K, 10000 kPa): 824.3 ± 1.5 kg/m3
mass density (353.15 K, 15000 kPa): 829.9 ± 1.7 kg/m3
mass density (353.15 K, 20000 kPa): 835.1 ± 1.9 kg/m3
mass density (353.15 K, 25000 kPa): 840 ± 2.1 kg/m3
mass density (353.15 K, 30000 kPa): 844.7 ± 2.3 kg/m3
mass density (353.15 K, 35000 kPa): 849.1 ± 2.5 kg/m3
mass density (363.15 K, 100 kPa): 801.2 ± 1 kg/m3
mass density (363.15 K, 1000 kPa): 802.5 ± 1.1 kg/m3
mass density (363.15 K, 2000 kPa): 803.9 ± 1.1 kg/m3
mass density (363.15 K, 2780 kPa): 805 ± 1.2 kg/m3
mass density (363.15 K, 3000 kPa): 805.5 ± 1.2 kg/m3
mass density (363.15 K, 5000 kPa): 808.1 ± 1.3 kg/m3
mass density (363.15 K, 10000 kPa): 814.6 ± 1.5 kg/m3
mass density (363.15 K, 15000 kPa): 820.5 ± 1.8 kg/m3
mass density (363.15 K, 20000 kPa): 826 ± 2 kg/m3
mass density (363.15 K, 25000 kPa): 831.2 ± 2.2 kg/m3
mass density (363.15 K, 30000 kPa): 836 ± 2.4 kg/m3
mass density (363.15 K, 35000 kPa): 840.8 ± 2.6 kg/m3
mass density (373.15 K, 100 kPa): 790.7 ± 1 kg/m3
mass density (373.15 K, 1000 kPa): 792 ± 1.1 kg/m3
mass density (373.15 K, 2000 kPa): 793.5 ± 1.2 kg/m3
mass density (373.15 K, 2780 kPa): 794.7 ± 1.2 kg/m3
mass density (373.15 K, 3000 kPa): 795 ± 1.2 kg/m3
mass density (373.15 K, 5000 kPa): 797.9 ± 1.3 kg/m3
mass density (373.15 K, 10000 kPa): 804.8 ± 1.6 kg/m3
mass density (373.15 K, 15000 kPa): 810.9 ± 1.8 kg/m3
mass density (373.15 K, 20000 kPa): 816.7 ± 2.1 kg/m3
mass density (373.15 K, 25000 kPa): 822.2 ± 2.3 kg/m3
mass density (373.15 K, 30000 kPa): 827.3 ± 2.5 kg/m3
mass density (373.15 K, 35000 kPa): 832.3 ± 2.7 kg/m3
mass density (383.15 K, 100 kPa): 779.9 ± 1.1 kg/m3
mass density (383.15 K, 1000 kPa): 781.3 ± 1.1 kg/m3
mass density (383.15 K, 2000 kPa): 783 ± 1.2 kg/m3
mass density (383.15 K, 2780 kPa): 784.2 ± 1.2 kg/m3
mass density (383.15 K, 3000 kPa): 784.5 ± 1.2 kg/m3
mass density (383.15 K, 5000 kPa): 787.6 ± 1.4 kg/m3
mass density (383.15 K, 10000 kPa): 795 ± 1.6 kg/m3
mass density (383.15 K, 15000 kPa): 801.5 ± 1.9 kg/m3
mass density (383.15 K, 20000 kPa): 807.6 ± 2.1 kg/m3
mass density (383.15 K, 25000 kPa): 813.4 ± 2.4 kg/m3
mass density (383.15 K, 30000 kPa): 818.9 ± 2.6 kg/m3
mass density (383.15 K, 35000 kPa): 824 ± 2.8 kg/m3
mass density (393.15 K, 100 kPa): 769 ± 1.1 kg/m3
mass density (393.15 K, 1000 kPa): 770.5 ± 1.2 kg/m3
mass density (393.15 K, 2000 kPa): 772.3 ± 1.2 kg/m3
mass density (393.15 K, 2780 kPa): 773.6 ± 1.3 kg/m3
mass density (393.15 K, 3000 kPa): 774.1 ± 1.3 kg/m3
mass density (393.15 K, 5000 kPa): 777.4 ± 1.4 kg/m3
mass density (393.15 K, 10000 kPa): 785.1 ± 1.7 kg/m3
mass density (393.15 K, 15000 kPa): 791.6 ± 2 kg/m3
mass density (393.15 K, 20000 kPa): 797.7 ± 2.2 kg/m3
mass density (393.15 K, 25000 kPa): 803.5 ± 2.5 kg/m3
mass density (393.15 K, 30000 kPa): 809 ± 2.7 kg/m3
mass density (393.15 K, 35000 kPa): 814 ± 2.9 kg/m3

— the NIST ThermoML archive (doi:10.1021/je800251v)
